Laboratory results reported in patent EP0445735A1, “Melanogenesis-inhibiting endermic preparation” (Sansho Seiyaku Co., Ltd., priority 1990, dated 1991).

Test system: B16 cells
Assay: Test of whitening B16 cells (whiteness of cell pellets observed with the naked eye)
Assay type: cell-based
Conditions: for EC (whiteness 3+): Mus musculus, whiteness of cells 3 + (gray), read-out: Concentration of the test compound to give whiteness of cells of being 3 + (gray); for Whiteness of Cells: cell pellets after five days
Experimental: PMC was added to Eagle's MEM medium, to which a fetal calf serum had been added, in a concentration of 100, 50, 20 or 10 µM. 1 × 10⁵ B16 cells were inoculated into the medium. Three days after the inoculation, the medium was exchanged for a fresh one.
Standards of evaluation of whiteness of cells are as follows: 5 + : White 4 + : White to Gray 3 + : Gray 2 + : Gray to Black 1 + : Black (but somewhat paler than control) - : Black

SMILES | EC (whiteness 3+) [µM] | Whiteness of Cells (Concentration 10 µM) | Whiteness of Cells (Concentration 20 µM) | Whiteness of Cells (Concentration 50 µM) | Whiteness of Cells (Concentration 100 µM)
COC1(C)CCc2c(C)c(O)c(C)c(C)c2O1 (stereo not drawn) [(3), 2,5,7,8-Tetramethyl-2-methoxzy-6-hydroxychroman] | 50 |  |  |  | 
Cc1c2c(c(C(C)C)c(O)c1C(C)C)CCC(C)(C)O2 [(4), 2,2,8-Trimethyl-5,7-diisopropyl-6-hydroxychroman] | 20 |  |  |  | 
Cc1c(C)c2c(c(C)c1O)CCC(C)(CO)O2 (stereo not drawn) [(5), 2,5,7,8-Tetramethyl-6-hydroxy-2-hydroxymethylchroman] | 40 |  |  |  | 
CCOC(=O)CC1(C)CCc2c(C)c(O)c(C)c(C)c2O1 (stereo not drawn) [(6), Ethyl 2,5,7,8-tetramethyl-6-hydroxychroman-2-acetate] | 30 |  |  |  | 
Cc1c(C)c2c(c(C)c1O)CCC(C)(C)O2 [PMC, 2,2,5,7,8-Pentamethyl-6-hydroxychroman] | 50 | 1 + | 2 + | 3 + | 4 +
